Read-outs that look alike come from different tables or passages of the source.
Key:
[1] = Caco-2 permeability assay; format: in vitro ADME; details: human
Procedure: Caco-2 cells were cultured on 24-well plates at 0.8×10^5 cells/cm^2 for approximately 20 days until TEER values were above 300 Ωcm^2. Caco-2 monolayers were rinsed twice with transport buffer (HBSS supplemented with 10 mM HEPES and 25 mM glucose, pH 7.4) and then pre-incubated for 30 min. Test and control compound solutions were loaded into the donor (A) or acceptor (B) compartments of a 24-well plate and incubated at 37° C. with 5% CO2 and 65% humidity for 2 h. For A to B permeability, the donor wells contained test compound and corresponding acceptor wells contained transport buffer. For B to A permeability, the […]. Atenolol and propranolol were used as low and high permeability compound controls, respectively. Digoxin was used was a P-gp substrate control. Cell viability was tested with Lucifer yellow at the end of the study.
Permeability was calculated as follows:
[formula] PappA to B={0.0005376×([Drug] Acceptor/[Drug] Initial)}
PappB to A={0.0001792×([Drug] Acceptor/[Drug] Initial)}
Polarization Ratio=PappB to A/PappA to B
Polarization ratio >2 considered as an efflux (P-gp) substrate.

[2] = Exploratory small molecule PK study in rats; format: in vivo, male Sprague-Dawley rats; parameters: AUClast: unit not given here; details: rat; for half-life: male, Sprague-Dawley, plasma, read-out: T½ (converted)
Procedure: PK studies were conducted in male Sprague-Dawley rats. One group was dosed by IV (n=2) and another group was dosed orally (n=3). Blood samples were collected in lithium heparin coated microfuge tubes at 5 (IV only), 15, 30 min, 1, 3, 4, 6, 8, 24 h post dose. Samples were then centrifuged under refrigerated conditions and plasma was collected for analysis.
A solvent-based protein precipitation procedure was used to measure the concentration of each compound in plasma and/or whole blood. Samples were analyzed with an Agilent 1100 HPLC (Santa Clara, Calif.) interfaced to an API 4000 tandem mass spectrometer (Applied Biosystems, Foster City, Calif.) using a Synergy, Hydro-RP column (4 μm, 2×50 mm; Phenomenex, Torrance, Calif.) at a flow rate of 0.5 ml/min. Mobile phase consisted of 10 mM ammonium acetate in water (A) and 10 mM ammonium acetate in 95/5 (v/v) methanol/water (B). Total run time was 5 min with the gradient elution. […] All standard curves were fit to a quadratic equation with a weighing factor of 1/(concentration)^2 to calculate compound concentrations.

[3] = tested on: Her2; test: Degradation of Her2 in BT-474 cells (Western blot, Method 1); format: cell-based, Human; details: 0.5 μM, overnight
Procedure: BT-474 cells are treated with 0.5 μM, 2 μM, or 5 μM of 17AAG (a positive control) or 0.5 μM, 2 μM, or 5 μM of a compound of the invention overnight in DMEM medium. After treatment, each cytoplasmic sample is prepared from 1×10^6 cells by incubation of cell lysis buffer (#9803, Cell Signaling Technology) on ice for 10 minutes. The resulting supernatant used as the cytosol fractions is dissolved with sample buffer for SDS-PAGE and run on a SDS-PAGE gel, blotted onto a nitrocellulose membrane by using semi-dry transfer. Non-specific binding to nitrocellulose is blocked with 5% skim milk in TBS with 0.5% Tween at room temperature for 1 hour, then probed with anti-Her2/ErB2 mAb (rabbit IgG, #2242, Cell Signaling) and anti-Tubulin (T9026, Sigma) as housekeeping control protein. HRP-conjugated goat anti-rabbit IgG (H+L) and HRP-conjugated horse anti-mouse IgG (H+L) are used as secondary Ab (#7074, #7076, Cell Signaling) and LumiGLO reagent, 20× Peroxide (#7003, Cell Signaling) is used for visualization.
BT-474 cells were treated with 0.5 μM, 2 μM, or 5 μM of 17AAG (a positive control) or 0.5 μM, 2 μM, or 5 μM of a compound of the invention overnight in DMEM medium. After treatment, each cytoplasmic sample was prepared from 1×10^6 cells by incubation of cell lysis buffer (#9803, Cell Signaling Technology) on ice for 10 minutes. […]

SMILES	Papp A→B at 2 h ([1]; A to B, 2 h, 37° C., pH 7.4) [×10⁻⁶ cm/s]	efflux ratio at 2 h ([1]; pH 7.4, ratio >2 considered as an efflux (P-gp) substrate, read-out: Pol. Ratio B-A/A-B)	half-life ([2]; IV 5 mg/Kg, DPD) [h]	half-life ([2]; PO 25 mg/Kg, D5W) [h]	AUClast ([2]; IV 5 mg/Kg, DPD)	F ([2]; PO 25 mg/Kg D5W vs IV 5 mg/Kg DPD) [%]	AUClast ([2]; PO 25 mg/Kg, D5W)	degradation of Her2 [3]
CC(C)c1n[nH]c2cc(O)c(-c3nnc(C(=O)NCC(F)(F)F)n3-c3ccc(N4CCOCC4)cc3)cc12 [Compound 38, 5-(6-hydroxy-3-isopropyl-1H-indazol-5-yl)-4-(4-morpholinophenyl)-N-(2,2,2-trifluoroethyl)-4H-1,2,4-triazole-3-carboxamide]	12.4	2	2.3	10.7	2.6	0.52	0.07	
C=CCNC1=C2C[C@@H](C)C[C@H](OC)[C@H](O)[C@@H](C)/C=C(\C)[C@H](OC(N)=O)[C@@H](OC)/C=C\C=C(/C)C(=O)NC(=CC1=O)C2=O [Compound 17AAG, 17-allylamino-17-demethoxygeldanamycin]								partial degradation of Her2
